Assay results reported in US8568762B2, “Methods for modifying the surface of an implant to provide said surface with calcium” (Biotechnology Institute, I Mas D, S.L., priority 2010, dated 2013).

Key:
blood plasma [1] = assay: Test 4b: coagulation in the presence of surfaces with or without calcium (titanium tubes, absorbance 450 nm); format: biochemical, human; conditions: surfaces with no calcium; 50 mM NaOH or 0.9 wt. % NaCl treatment, not dried
Procedure: Blood plasma was prepared by extracting blood from three healthy patients. A technique similar to the one described in patent EP1066838B1 was applied to obtain a Plasma Rich in Growth Factors (PRGF): the blood was centrifuged for eight minutes at 460 G; the column of plasma was then separated from the red globules and white globules by manual pipetting (unlike the protocol described in EP1066838B1, in this case, due to the criteria of volume for carrying out the experiments, the entire plasma column was selected, not merely the part richer in platelets). Both the red globules and the white globules were discarded. First of all, the surfaces were prepared. For the study of the coagulation, in which the excess surface calcium was to be measured, hollow tubes were used to enable the reader beam to move longitudinally. […] They were ultrasound-washed with Triton X-100, acetone and ethanol, for 20 minutes. Eight tubes were used per concentration. The solutions were prepared. […] Immediately after the tubes were filled, absorbance (optical density) was measured with a spectrophotometer at a wavelength of 450 nm. […] This gradual cross-linking gradually blocks the passage of the reader beam, the absorbance therefore increasing. […] It is at this point that the absorbance (optical density) values are collated so that comparisons can be made between the various samples.

blood plasma [2] = assay: Test 4a: coagulation as a function of the volume concentration of calcium (absorbance 450 nm); format: biochemical, human; conditions: without surfaces; calcium in plasma between 2.5 and 45.6 mM
Procedure: Blood plasma was prepared by extracting blood from three healthy patients. A technique similar to the one described in patent EP1066838B1 was applied to obtain a Plasma Rich in Growth Factors (PRGF): the blood was centrifuged for eight minutes at 460 G; the column of plasma was then separated from the red globules and white globules by manual pipetting (unlike the protocol described in EP1066838B1, in this case, due to the criteria of volume for carrying out the experiments, the entire plasma column was selected, not merely the part richer in platelets). Both the red globules and the white globules were discarded.
For the purpose of determining the ranges of concentration of calcium ions in plasma at which coagulation is initiated, 10 μl of CaCl2.EtOH were placed in concentrations of between 28 and 2000 mM in the bottom of a multi-well plate comprising 96 wells. […] Absorbance was measured immediately in the manner described hereafter.
Immediately after the tubes were filled, absorbance (optical density) was measured with a spectrophotometer at a wavelength of 450 nm. […]
This gradual cross-linking gradually blocks the passage of the reader beam, the absorbance therefore increasing. […] It is at this point that the absorbance (optical density) values are collated so that comparisons can be made between the various samples.

[3] = ambient temperature; cited from earlier work

For `[Cl-].[Na+]` [NaCl, sodium chloride], the “degree of coagulation inside titanium tubes normalized to positive control” value (blood plasma [1]) was “lack of coagulation is evident”.
In the case of `[Ca+2].[Cl-].[Cl-]` [CaCl2, calcium chloride], the “final degree of coagulation in volume, normalized with respect to the positive control” value (blood plasma [2]) is given as “sometimes even greater than that of the positive control” and the solubility in water [3] is given as over 60 g/100 mL.
For `[Na+].[OH-]` [NaOH, sodium hydroxide], the “degree of coagulation inside titanium tubes normalized to positive control” value (blood plasma [1]) was “lack of coagulation is evident”.
